# Results reported in PubChem BioAssay (NCI).
#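 Dose response: 5 concentrations. Exposure: 48 h. Format: 96-well plates. Endpoint: linear interpolation; highest concentration if not reached. TGI: total growth inhibition.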
# Legend:
# Assay in all cases: NCI tumour cell line growth inhibition, 48 h
# BT-549 breast = tested on: BT-549 breast
# COLO 205 colon = tested on: COLO 205 colon
# KM12 colon = tested on: KM12 colon
# MALME-3M melanoma = tested on: MALME-3M melanoma
# SK-MEL-2 melanoma = tested on: SK-MEL-2 melanoma
# SNB-19 CNS = tested on: SNB-19 CNS
# SNB-75 CNS = tested on: SNB-75 CNS
# SW-620 colon = tested on: SW-620 colon
# HOP-62 NSCLC = tested on: HOP-62 NSCLC
# IGROV1 ovarian = tested on: IGROV1 ovarian
SMILES,TGI (BT-549 breast),TGI (COLO 205 colon),TGI (KM12 colon),TGI (MALME-3M melanoma),TGI (SK-MEL-2 melanoma),TGI (SNB-19 CNS),TGI (SNB-75 CNS),TGI (SW-620 colon),TGI (HOP-62 NSCLC),TGI (IGROV1 ovarian)
CCOC(=O)c1cc(I)c(-c2cc(C)no2)n1C,> 100 µM,> 100 µM,49.3 µM,> 100 µM,> 100 µM,> 100 µM,> 100 µM,> 100 µM,–,–
O=C(CCCCCCCCC(=O)N1C(=O)CC(=O)N(c2ccccc2)C1=S)N1C(=O)CC(=O)N(c2ccccc2)C1=S,> 100 µM,> 100 µM,> 100 µM,> 100 µM,> 100 µM,> 100 µM,> 100 µM,–,> 100 µM,–
COc1cc(C2=NNC(=O)c3ccccc3N2c2nc(-c3cccs3)nc3ccc(Br)cc23)cc(OC)c1OC,> 100 µM,> 100 µM,30.5 µM,59.1 µM,> 100 µM,> 100 µM,> 100 µM,> 100 µM,59.2 µM,> 100 µM
C=CCN1C(=O)/C(=C/c2ccco2)N=C1SC1OC(COC(C)=O)C(OC(C)=O)C(OC(C)=O)C1OC(C)=O (centres undefined),> 100 µM,> 100 µM,> 100 µM,> 100 µM,> 100 µM,–,> 100 µM,> 100 µM,> 100 µM,> 100 µM
C[n+]1c(-c2ccc(/C=N/Nc3ccnc(N/N=C/c4ccc(-c5cn6ccsc6[n+]5C)cc4)n3)cc2)cn2ccsc21,78.5 µM,87.9 µM,> 100 µM,> 100 µM,85.9 µM,> 100 µM,68.3 µM,> 100 µM,80.2 µM,> 100 µM
Cc1cn(CCCCCCC2=NCCCN2)c(=O)[nH]c1=O,> 100 µM,> 100 µM,> 100 µM,> 100 µM,> 100 µM,> 100 µM,> 100 µM,> 100 µM,> 100 µM,> 100 µM
CC(=O)OCc1cncn1S(=O)(=O)c1ccc(C)cc1,> 100 µM,> 100 µM,> 100 µM,> 100 µM,> 100 µM,> 100 µM,> 100 µM,> 100 µM,> 100 µM,> 100 µM
CC(=O)c1ccccc1NCC(=O)Nn1cnc2ccc(S(=O)(=O)Nc3ccccc3C(C)=O)cc2c1=O,> 100 µM,> 100 µM,> 100 µM,> 100 µM,> 100 µM,> 100 µM,> 100 µM,> 100 µM,> 100 µM,> 100 µM
COC(=O)C1=C(OC(=O)/C=C/c2ccccc2)C(C(=O)OC)[C@@]2(O)[C@@H](C(=O)OC)[C@H](C)C[C@@H]1[C@@H]2C(=O)OC (some centres undefined),56.1 µM,74.8 µM,> 100 µM,65.5 µM,91.1 µM,> 100 µM,73.1 µM,> 100 µM,48.2 µM,63.3 µM
O=c1c2c3c(sc2nc2n1N=C(c1ccc(Cl)cc1)CS2)CCCC3,> 100 µM,> 100 µM,> 100 µM,> 100 µM,–,–,> 100 µM,> 100 µM,> 100 µM,> 100 µM
COC(=O)[C@H]1NC(=O)CCSSC1(C)C,> 100 µM,> 100 µM,> 100 µM,> 100 µM,> 100 µM,> 100 µM,–,> 100 µM,> 100 µM,> 100 µM
C(/Cc1ccc2c(c1)OCO2)=N\NC1=NCCN1,> 100 µM,> 100 µM,> 100 µM,> 100 µM,> 100 µM,> 100 µM,> 100 µM,> 100 µM,> 100 µM,> 100 µM
CCOC(=O)c1c(-c2ccc(Cl)cc2)c(C#N)c(=S)n(C2OC(COC(C)=O)C(OC(C)=O)C(OC(C)=O)C2OC(C)=O)c1-c1ccccc1 (centres undefined),> 100 µM,> 100 µM,> 100 µM,> 100 µM,> 100 µM,> 100 µM,> 100 µM,> 100 µM,> 100 µM,> 100 µM
CCN(CC)C(=S)Nc1ccc(-c2cc3ccc(O)cc3oc2=O)cc1,85 µM,> 100 µM,> 100 µM,69.2 µM,49.3 µM,> 100 µM,> 100 µM,> 100 µM,–,> 100 µM
Brc1ccc2c3c1[C@H]1O[C@H]1c1cccc(c1-3)[C@@H]1O[C@H]21,31.5 µM,38.3 µM,28.8 µM,33 µM,41.6 µM,34.3 µM,26.3 µM,–,30.3 µM,–
C(=N\Nc1ccc(-c2nc3ccccc3[nH]2)cc1)/c1c(-c2ccc(Cc3ccccc3)cc2)[nH]c2ccccc12,38 µM,19.8 µM,> 41.3 µM,23.2 µM,20 µM,> 77.3 µM,41.2 µM,> 100 µM,> 100 µM,19 µM
